Results as given in ChEMBL document CHEMBL2010642, “Trichostatin analogues JBIR-109, JBIR-110, and JBIR-111 from the marine sponge-derived Streptomyces sp. RM72” (J Nat Prod, 2012).

Molecular target: Histone deacetylase 1 (Homo sapiens, UniProt Q13547)
Experiment: Inhibition of human HDAC1 after 30 mins by fluorescence assay

Histone deacetylase 1, sequence (Q13547 whole entry): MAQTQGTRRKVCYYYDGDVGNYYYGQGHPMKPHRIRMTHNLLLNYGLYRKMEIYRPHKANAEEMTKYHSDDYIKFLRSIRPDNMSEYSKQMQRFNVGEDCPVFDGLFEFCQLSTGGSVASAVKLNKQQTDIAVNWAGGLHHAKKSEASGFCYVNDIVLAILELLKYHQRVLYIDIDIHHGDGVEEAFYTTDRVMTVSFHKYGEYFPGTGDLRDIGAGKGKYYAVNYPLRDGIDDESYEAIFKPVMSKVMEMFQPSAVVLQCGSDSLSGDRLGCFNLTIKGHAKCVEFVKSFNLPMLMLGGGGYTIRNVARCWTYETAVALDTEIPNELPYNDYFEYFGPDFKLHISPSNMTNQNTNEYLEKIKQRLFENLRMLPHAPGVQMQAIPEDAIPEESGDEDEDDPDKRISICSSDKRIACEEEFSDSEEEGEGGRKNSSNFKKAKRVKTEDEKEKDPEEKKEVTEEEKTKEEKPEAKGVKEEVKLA

Row | IC50 [µM] | SMILES
1 | 48 | CC(/C=C/C(=O)N[C@@H](CCC(=O)O)C(=O)O)=C\[C@@H](C)C(=O)c1ccc(N(C)C)cc1
2 | 74 | CC(/C=C/C(=O)NCCS(=O)(=O)O)=C\[C@@H](C)C(=O)c1ccc(N(C)C)cc1
3 | 57 | CC(/C=C/C(=O)N[C@](C)(CO)C(=O)O)=C\[C@@H](C)C(=O)c1ccc(N(C)C)cc1
4 | 73 | CC(/C=C/C(=O)O)=C\[C@@H](C)C(=O)c1ccc(N(C)C)cc1 [TRICHOSTATIC ACID]
